Reference: article PMC12748989 (Nature Communications, 2025)

Tests used:
[1] = system: MDA-MB-231 cells
[2] = system: PBMC; conditions: 12.5 µM

Structure (SMILES)	Average (percentage cell inhibition), Dmastoparan MDA-MB231 12.5uM [1]	Average (percentage cell inhibition), Mastoparan PBMC [2]
CC[C@H](C)[C@H](N)C(=O)N[C@@H](CC(N)=O)C(=O)N[C@@H](CC(C)C)C(=O)N[C@@H](CCCCN)C(=O)N[C@@H](C)C(=O)N[C@@H](CC(C)C)C(=O)N[C@@H](C)C(=O)N[C@@H](C)C(=O)N[C@@H](CC(C)C)C(=O)N[C@@H](CCCCN)C(=O)N[C@@H](CCCCN)C(=O)N[C@@H](CCCCN)C(=O)N[C@H](C(=O)N[C@@H](CC(C)C)C(N)=O)[C@@H](C)CC [K10]	22.5673%	0.05559%
CC[C@H](C)[C@H](NC(=O)[C@H](CCCCN)NC(=O)[C@H](CCCCN)NC(=O)[C@H](C)NC(=O)[C@H](CC(C)C)NC(=O)[C@H](C)NC(=O)[C@H](C)NC(=O)[C@H](CC(C)C)NC(=O)[C@H](C)NC(=O)[C@H](CCCCN)NC(=O)[C@H](CC(C)C)NC(=O)[C@H](CC(N)=O)NC(=O)[C@H](C)N)C(=O)N[C@@H](CC(C)C)C(N)=O [A1]	30.2333%	5.463%
CC[C@H](C)[C@H](N)C(=O)N[C@@H](CC(N)=O)C(=O)N[C@@H](CC(C)C)C(=O)N[C@@H](CCCCN)C(=O)N[C@@H](C)C(=O)N[C@@H](CC(C)C)C(=O)N[C@@H](C)C(=O)N[C@@H](C)C(=O)N1CCC[C@H]1C(=O)N[C@@H](C)C(=O)N[C@@H](CCCCN)C(=O)N[C@@H](CCCCN)C(=O)N[C@H](C(=O)N[C@@H](CC(C)C)C(N)=O)[C@@H](C)CC [P9]	35.5446%	-6.87%
CC[C@H](C)[C@H](N)C(=O)N[C@@H](CC(N)=O)C(=O)N[C@@H](CC(C)C)C(=O)N[C@H](C(=O)N[C@@H](C)C(=O)N[C@@H](CC(C)C)C(=O)N[C@@H](C)C(=O)N[C@@H](C)C(=O)N[C@@H](CC(C)C)C(=O)N[C@@H](C)C(=O)N[C@@H](CCCCN)C(=O)N[C@@H](CCCCN)C(=O)N[C@H](C(=O)N[C@@H](CC(C)C)C(N)=O)[C@@H](C)CC)[C@@H](C)CC [I4]	30.9221%	5.736%
CC[C@H](C)[C@H](N)C(=O)N[C@@H](CC(N)=O)C(=O)N[C@@H](CC(C)C)C(=O)N[C@@H](CCCCN)C(=O)N[C@@H](C)C(=O)N[C@@H](CC(C)C)C(=O)N[C@@H](C)C(=O)N[C@@H](C)C(=O)N[C@@H](CC(C)C)C(=O)N[C@H](C(=O)N[C@@H](CCCCN)C(=O)N[C@@H](CCCCN)C(=O)N[C@H](C(=O)N[C@@H](CC(C)C)C(N)=O)[C@@H](C)CC)[C@@H](C)CC [I10]	54.8759%	25.836%
CC[C@H](C)[C@H](N)C(=O)N[C@@H](CC(N)=O)C(=O)N[C@@H](CC(C)C)C(=O)N[C@@H](CCCCN)C(=O)N[C@@H](C)C(=O)N[C@@H](CC(C)C)C(=O)N[C@@H](CCC(=O)O)C(=O)N[C@@H](C)C(=O)N[C@@H](CC(C)C)C(=O)N[C@@H](C)C(=O)N[C@@H](CCCCN)C(=O)N[C@@H](CCCCN)C(=O)N[C@H](C(=O)N[C@@H](CC(C)C)C(N)=O)[C@@H](C)CC [E7]	27.5958%	6.221%
CC[C@H](C)[C@H](N)C(=O)N[C@@H](CC(N)=O)C(=O)N[C@@H](CC(C)C)C(=O)N[C@@H](CCCCN)C(=O)N[C@@H](C)C(=O)N[C@@H](CC(C)C)C(=O)N[C@@H](C)C(=O)N[C@@H](C)C(=O)N[C@@H](CC(C)C)C(=O)N1CCC[C@H]1C(=O)N[C@@H](CCCCN)C(=O)N[C@@H](CCCCN)C(=O)N[C@H](C(=O)N[C@@H](CC(C)C)C(N)=O)[C@@H](C)CC [P10]	28.7019%	-7.837%
CC[C@H](C)[C@H](N)C(=O)N[C@@H](CC(N)=O)C(=O)N[C@@H](CC(C)C)C(=O)N[C@@H](CCCCN)C(=O)N[C@@H](C)C(=O)N[C@@H](CC(C)C)C(=O)N[C@@H](C)C(=O)N[C@@H](C)C(=O)N[C@@H](CC(C)C)C(=O)N[C@@H](C)C(=O)N[C@@H](CCC(=O)O)C(=O)N[C@@H](CCCCN)C(=O)N[C@H](C(=O)N[C@@H](CC(C)C)C(N)=O)[C@@H](C)CC [E11]	19.6815%	5.959%
CC[C@H](C)[C@H](N)C(=O)N[C@@H](CC(N)=O)C(=O)N[C@@H](CC(C)C)C(=O)N[C@@H](CCCCN)C(=O)N[C@@H](C)C(=O)N[C@@H](CC(C)C)C(=O)N[C@@H](C)C(=O)N[C@@H](C)C(=O)N[C@@H](CC(C)C)C(=O)N[C@@H](CCC(=O)O)C(=O)N[C@@H](CCCCN)C(=O)N[C@@H](CCCCN)C(=O)N[C@H](C(=O)N[C@@H](CC(C)C)C(N)=O)[C@@H](C)CC [E10]	7.891%	-0.2344%
CC[C@H](C)[C@H](N)C(=O)N[C@@H](CC(N)=O)C(=O)N[C@@H](CC(C)C)C(=O)N[C@@H](CCCCN)C(=O)N[C@@H](C)C(=O)N[C@@H](CC(C)C)C(=O)N[C@@H](C)C(=O)N[C@@H](C)C(=O)N[C@@H](CC(C)C)C(=O)N[C@@H](Cc1c[nH]c2ccccc12)C(=O)N[C@@H](CCCCN)C(=O)N[C@@H](CCCCN)C(=O)N[C@H](C(=O)N[C@@H](CC(C)C)C(N)=O)[C@@H](C)CC [W10]	49.5675%	15.3863%
CC[C@H](C)[C@H](N)C(=O)N[C@@H](CC(N)=O)C(=O)N[C@@H](CC(C)C)C(=O)N[C@@H](CCCCN)C(=O)N[C@@H](C)C(=O)N[C@@H](CC(C)C)C(=O)N1CCC[C@H]1C(=O)N[C@@H](C)C(=O)N[C@@H](CC(C)C)C(=O)N[C@@H](C)C(=O)N[C@@H](CCCCN)C(=O)N[C@@H](CCCCN)C(=O)N[C@H](C(=O)N[C@@H](CC(C)C)C(N)=O)[C@@H](C)CC [P7]	-0.6456%	-9.322%
CC[C@H](C)[C@H](N)C(=O)N[C@@H](CC(N)=O)C(=O)N[C@@H](CC(C)C)C(=O)N[C@@H](CCCCN)C(=O)N[C@@H](C)C(=O)N[C@@H](CC(C)C)C(=O)N[C@@H](C)C(=O)N[C@@H](C)C(=O)N[C@@H](CC(C)C)C(=O)N[C@@H](C)C(=O)N[C@@H](CC(N)=O)C(=O)N[C@@H](CCCCN)C(=O)N[C@H](C(=O)N[C@@H](CC(C)C)C(N)=O)[C@@H](C)CC [N11]	40.5108%	4.624%
CC[C@H](C)[C@H](N)C(=O)N[C@H](C(=O)N[C@@H](CC(C)C)C(=O)N[C@@H](CCCCN)C(=O)N[C@@H](C)C(=O)N[C@@H](CC(C)C)C(=O)N[C@@H](C)C(=O)N[C@@H](C)C(=O)N[C@@H](CC(C)C)C(=O)N[C@@H](C)C(=O)N[C@@H](CCCCN)C(=O)N[C@@H](CCCCN)C(=O)N[C@H](C(=O)N[C@@H](CC(C)C)C(N)=O)[C@@H](C)CC)C(C)C [V2]	91.4206%	65.6691%
CC[C@H](C)[C@H](N)C(=O)N[C@@H](CC(N)=O)C(=O)N[C@@H](CC(C)C)C(=O)N[C@@H](CCCCN)C(=O)N[C@@H](C)C(=O)N[C@@H](CC(C)C)C(=O)N[C@@H](C)C(=O)N[C@@H](C)C(=O)N[C@@H](Cc1c[nH]cn1)C(=O)N[C@@H](C)C(=O)N[C@@H](CCCCN)C(=O)N[C@@H](CCCCN)C(=O)N[C@H](C(=O)N[C@@H](CC(C)C)C(N)=O)[C@@H](C)CC [H9]	18.6976%	-4.349%
CC[C@H](C)[C@H](N)C(=O)N[C@@H](CC(N)=O)C(=O)N[C@@H](CC(C)C)C(=O)N[C@@H](CCCCN)C(=O)N[C@@H](C)C(=O)N[C@@H](CCCNC(=N)N)C(=O)N[C@@H](C)C(=O)N[C@@H](C)C(=O)N[C@@H](CC(C)C)C(=O)N[C@@H](C)C(=O)N[C@@H](CCCCN)C(=O)N[C@@H](CCCCN)C(=O)N[C@H](C(=O)N[C@@H](CC(C)C)C(N)=O)[C@@H](C)CC [R6]	11.7131%	-10.6069%
CC[C@H](C)[C@H](N)C(=O)N[C@@H](CC(N)=O)C(=O)N[C@@H](CC(C)C)C(=O)N[C@@H](CCCCN)C(=O)N[C@@H](C)C(=O)N[C@@H](CC(C)C)C(=O)N[C@@H](C)C(=O)N[C@@H](C)C(=O)N[C@@H](CC(C)C)C(=O)N[C@@H](C)C(=O)N[C@@H](CCCCN)C(=O)N[C@H](C(=O)N[C@H](C(=O)N[C@@H](CC(C)C)C(N)=O)[C@@H](C)CC)[C@@H](C)O [T12]	27.1643%	10.5164%
CC[C@H](C)[C@H](N)C(=O)N[C@@H](CC(N)=O)C(=O)N[C@@H](CC(C)C)C(=O)N[C@@H](CCCCN)C(=O)N[C@@H](C)C(=O)N1CCC[C@H]1C(=O)N[C@@H](C)C(=O)N[C@@H](C)C(=O)N[C@@H](CC(C)C)C(=O)N[C@@H](C)C(=O)N[C@@H](CCCCN)C(=O)N[C@@H](CCCCN)C(=O)N[C@H](C(=O)N[C@@H](CC(C)C)C(N)=O)[C@@H](C)CC [P6]	-16.4349%	-8.854%
CC[C@H](C)[C@H](N)C(=O)N[C@@H](CC(N)=O)C(=O)N[C@@H](CC(C)C)C(=O)N[C@@H](CCCCN)C(=O)N[C@@H](C)C(=O)N[C@H](C(=O)N[C@@H](C)C(=O)N[C@@H](C)C(=O)N[C@@H](CC(C)C)C(=O)N[C@@H](C)C(=O)N[C@@H](CCCCN)C(=O)N[C@@H](CCCCN)C(=O)N[C@H](C(=O)N[C@@H](CC(C)C)C(N)=O)[C@@H](C)CC)C(C)C [V6]	10.4144%	-4.76%
CC[C@H](C)[C@H](N)C(=O)N[C@@H](CC(N)=O)C(=O)N[C@@H](CC(C)C)C(=O)N[C@@H](CCCCN)C(=O)N[C@@H](C)C(=O)N[C@@H](CC(C)C)C(=O)N[C@@H](C)C(=O)N[C@@H](C)C(=O)N[C@@H](CC(C)C)C(=O)N[C@@H](C)C(=O)N[C@@H](CCCCN)C(=O)N[C@@H](CCCCN)C(=O)N[C@@H](CCCCN)C(=O)N[C@@H](CC(C)C)C(N)=O [K13]	29.9957%	5%
